How the values were obtained:
[1] = tested on: LNCaP, LNCaP-KD, PC3-PSMA and PC3-wt cells; experiment: In vitro chemotherapy, cell viability (Alamar blue); settings: 200 nM, overnight
Procedure: Cells were seeded in a 96-well format (2,500 cells per well), and grown for 48 h. They were then treated with the following drugs at a final concentration of 200 nM: Doxorubicin, Taxol, AZD6244, BEZ235, Lapatinib, and Velcade (all purchased from Selleck Chemicals, Houston, Tex.). For combination therapy, cells were treated with 2-PMPA (5 μM final concentration). After overnight incubation in the presence of the drugs, cell viability was determined with the Alamar blue method according to the supplier's guidelines (Life Technologies, Carlsbad, Calif.)
Given that PSMA affects the phosphorylation status of multiple targets, it was investigated whether inhibition of PSMA can counteract resistance to various chemotherapeutics used in the clinic or under clinical trials. LNCaP and PCS3-PSMA cells were seeded at a density of 2,500 cells per well in a 96-well format, and after 48 hours growth the cells were treated with the drugs (Doxorubicin (Adriamycin; DNA intercalator), Taxol (Paclitaxel; microtubule stabilizer), AZD6244 (Selumetinib; MEK1 & ERK1/2 inhibitor), BEZ235 (Dactolisib; PI3K & mTOR inhibitor), Lapatinib (EGFR and ErbB2 inhibitor), or Velcade (Bortezomib; 20S proteasome inhibitor), 200 nM final concentration in 1×PBS) or with the drugs (200 nM final concentration) and 2-PMPA (5 μM final concentration). After overnight incubation, cell viability was assessed fluorimetrically with the Alamar blue method (Invitrogen), according to the supplier's protocol.

[2] = tested on: PSMA-expressing prostate cancer cells (LNCaP-wt, PC3-hPSMA) and PC3-wt; experiment: Cytoplasmic calcium quantification (Fluo4 assay); assay type: cell-based, human
Procedure: Cells were seeded at a density of 10,000 per well on a 96-well plate and grown overnight. Loading of the calcium-sensing dye Fluo4 (Life Technologies, Calrsbad, Calif.) was performed according to the manufacturer's instructions. Where indicated the cells were treated with thapsigargin (1 μM, Tocris, Minneapolis, Minn.), L-Quisqualic acid (110 μM, Tocris), 3,5-DHPG (0.67 mM, Tocris), L-AP3 (125 μM, Tocris), U73122 (50 μM, Tocris), and 2-PMPA (100 μM, Tocris) immediately before measuring calcium levels, with a SpectraMax M5 plate reader (Molecular Devices, Sunnyvale, Calif.).
The effect of PSMA expression on calcium homeostasis in prostate cancer cell lines was evaluated using the fluorimetric Fluo4 assay kit (Invitrogen), according to the supplier's instructions. The plate was excited at 490 nm, and fluorescence emission was monitored at 520 nm with the SpectraMax M5 plate reader (Molecular Devices). […] To examine calcium accumulation in the cytoplasm, the cells were treated with thapsigargin (1 μM, Tocris) immediately prior to taking measurements with the plate reader. […] Furthermore, we investigated whether PSMA facilitates calcium signaling via the mGluR Group I receptors through its enzymatic activity. The cells were treated with either L-Quisqualic acid (110 μM; mGluR I agonist, Tocris), L-AP3 (125 μM; mGluR I antagonist, Tocris) or a PSMA inhibitor (100 μM, Tocris), immediately prior to taking calcium measurements.

SMILES: CC(C)C[C@H](NC(=O)[C@H](Cc1ccccc1)NC(=O)c1cnccn1)B(O)O [Velcade, Bortezomib]
- sensitivity of PC3-wt cells compared with PC3-PSMA [1]: more sensitive

SMILES: C/C=C(/C)C(=O)O[C@H]1C(C)=C2[C@H]([C@@H]1OC(=O)CCCCCCC)[C@@](C)(OC(C)=O)C[C@H](OC(=O)CCC)[C@@]1(O)[C@H]2OC(=O)[C@@]1(C)O [thapsigargin]
- calcium accumulation in the cytoplasm ([2]; thapsigargin 1 μM, PSMA-expressing cells versus PC3-wt, FIG. 1b): significant buildup of calcium in their cytoplasm

SMILES: COc1ccc2c(c1)CC[C@@H]1[C@@H]2CC[C@]2(C)[C@@H](NCCCCCCN3C(=O)C=CC3=O)CC[C@@H]12 [U73122]
- cytoplasmic calcium levels ([2]; PSMA inhibition compared with Phospholipase C inhibitor U73122 50 μM, FIG. 1d): reduction in calcium levels

SMILES: N[C@@H](CP(=O)(O)O)C(=O)O [L-AP3]
- cytoplasmic calcium levels ([2]; PSMA-expressing cells, PSMA inhibitor 100 μM, L-AP3 125 μM, FIG. 1c): lowered calcium levels
